# Laboratory results from patent publication US20180221457A1 (VAL-CHUM, LIMITED PARTNERSHIP, priority 2015, published 2018).
# B1: Recombinant human PGP (Homo sapiens) (protein)
# chain: MAAAEAGGDDARCVRLSAERAQALLADVDTLLFDCDGVLWRGETAVPGAPEALRALRARGKRLGFITNNSSKTRAAYAEKLRRLGFGGPAGPGASLEVFGTAYCTALYLRQRLAGAPAPKAYVLGSPALAAELEAVGVASVGVGPEPLQGEGPGDWLHAPLEPDVRAVVVGFDPHFSYMKLTKALRYLQQPGCLLVGTNMDNRLPLENGRFIAGTGCLVRAVEMAAQRQADIIGKPSRFIFDCVSQEYGINPERTVMVGDRLDTDILLGATCGLKTILTLTGVSTLGDVKNNQESDCVSKKKMVPDFYVDSIADLLPALQG
# Key:
# human G3PP (hG3PP) = target: T1, human G3PP (hG3PP) (Homo sapiens, UniProt A6NDG6); assay: Effect of organic acids on G3PP activity in hG3PP-overexpressing 293T cell extracts; assay type: biochemical; details: 10 mM Gro3P substrate, 2 or 10 mM test organic acid, 30 min at 30° C.
# T1 construct: expressed in transfected cells; host or cells: 293T cells (whole cell extract)
# T1 sequence (A6NDG6 1-321): B1 chain
# Method: In order to examine the effect of various compounds on G3PP activity, human G3PP (hG3PP) was overexpressed in 293T cells, using a plasmid vector. Simultaneously control cells received GFP (Green Fluorescent Protein) expression plasmid. After 72 h following transfection, cells were harvested and whole cell extracts were prepared in Krebs Ringer Buffer (KRBH). G3PP was assayed using […] G3PP cell extract protein (or GFP control extract) with 10 mM Gro3P substrate and 2 or 10 mM test organic acid (R-hydroxy butyric acid, glycolate, succinate, citrate, malate, fumarate, lactate and malonate). Incubations were for 30 min at 30° C. Then the reactions were stopped by adding perchloric acid and glycerol released was measured using Γ-^32P-labeled ATP plus glycerokinase. The amount of glycerol release is proportional to the activity of hG3PP in the cell extracts.
# INS832/13 β-cells = assay: Free fatty acids and glycerol release from INS832/13 cells; assay type: cell-based, rat; details: 50 μM orlistat, 2 h
# Method: (§1) Free fatty acids and glycerol release. For FFA determinations, isolated rat islets were pre-incubated for 1 h in KRBH containing 2 mM glutamine and at 4 mM glucose, 50 μM carnitine and then incubated for 2 h at 4, 10, 16 and 25 mM glucose. The low and high glucose concentrations were 2 and 10 mM, respectively, when INS832/13 cells were used. Incubations were done without and with the panlipase inhibitor, orlistat. Cells and islets were harvested after incubations for protein extraction. FFA released into the medium were extracted by a modified Dole-Meinertz extraction procedure (Puttmann et al., 1993). Briefly, the media (0.5 ml), in Pyrex glass tubes, were mixed with the internal standard [^2H31]-palmitic acid and extracted with 2.5 ml of a solvent mixture containing isopropanol-n-heptane-2M phosphoric acid (40:10:1, v/v). […] The dried fatty acids were derivatized with phenacylbromide and quantified by reverse phase HPLC (Mehta et al., 1998) using a Zorbax Eclipse plus XDB analytical C18 column (4.6×250 mm; 5 μm; Agilent Technology). FFA were eluted using methanol/water (92.5:7.5, v/v) at a flow rate of 1.5 ml/min and absorbance of eluting FFA-phenacyl derivatives was measured at 242 and 254 nm. […] Glycerol release was determined by a radiometric glycerol assay (Bradley and Kaslow, 1989) using [Γ-^32P]ATP and glycerokinase.
# rat islets = assay: Free fatty acids and glycerol release from isolated rat islets; assay type: cell-based; details: 50 μM orlistat, 2 h
# Method: Islet and hepatocyte isolation. Pancreatic islets were isolated from rats and mice (Peyot et al., 2009). Isolated islets were cultured overnight at 37° C. in complete RPMI 1640 medium. Hepatocytes were isolated from rats by in situ collagenase perfusion and were seeded in DMEM complete medium (Merlen et al., 2014).
# as §1, with “v/v). After thorough mixing by vortex, the tubes were kept in a bath sonicator (Branson Ultrasonic) and sonicated for 2 min with 30 s intervals, avoiding sample heating. After rigorous mixing by vortex, the tubes were let stand at room temperature for 10 min, and then heptane (1 ml) and water (1.5 ml) were added and the tubes were thoroughly mixed by vortex followed by sonication for 1 min. Then the tubes were centrifuged at 1000×g for 10 min at 4° C.” for “v/v).”, “glycerokinase. […]” for “glycerokinase.”
# [1] = substrate: O=P(O)(O)OCC(O)CO; assay: purified protein, by the assay type; details: other: substrate glycerol-3-phosphate; pH 7.5
molecule,measurement,setting,value
O=C(O)/C=C/C(=O)O [fumarate],G3PP activity (glycerol released),human G3PP (hG3PP),do not activate similarly
O=C(O)CC(=O)O [malonate],G3PP activity (glycerol released),human G3PP (hG3PP),do not activate similarly
CC(O)CC(=O)O (stereo not drawn) [beta-hydroxybutyrate],G3PP activity (glycerol released),human G3PP (hG3PP),stimulated
O=C(O)CCC(=O)O [succinate],G3PP activity (glycerol released),human G3PP (hG3PP),marked stimulation
O=C(O)CC(O)C(=O)O (stereo not drawn) [malate],G3PP activity (glycerol released),human G3PP (hG3PP),do not activate similarly
CCCCCCCCCCC[C@@H](C[C@@H]1OC(=O)[C@H]1CCCCCC)OC(=O)[C@H](CC(C)C)NC=O [orlistat],glycerol release,INS832/13 β-cells; elevated glucose concentration,not inhibited
same,FFA release (lipolysis),INS832/13 β-cells; high glucose concentrations,reduction
same,glycerol release,rat islets; elevated glucose concentration,not inhibited
same,FFA release (lipolysis),rat islets; high glucose concentrations,reduction
same,glycerol release,rat islets; medium concentration of glucose (10 mM),moderate inhibition
B1,Km,[1],1500 µM
same,kcat,[1],0.1 s⁻¹
